The values below come from patent US8088951B2, “Epigenetic mechanisms re-establish access to long-term memory after neuronal loss” (Massachusetts Institute of Technology, priority 2006, dated 2012).

Entries after “also recorded” stand apart in the source; their conditions may differ.

The subject of assay [1] is MAP-2, synaptophysin (SVP), synaptic marker proteins. Kind of assay: Synaptic plasticity markers in CK-p25 Tg mice (immunostaining, immunoblot). The format is in vivo. As to the method: Immunoblotting and staining: Lysates for immunoblotting were prepared as described by Fischer et al. (3). To isolate histones, brain tissue was homogenized in TX-buffer (50 mM Tris HCL, 150 mM NACL, 2 mM EDTA, 1% Triton-100) and incubated at 4° C. for 15 min prior to centrifugation at 200 rpm for 10 min. After a wash-step in TX-buffer the pellet was dissolved in TX-buffer containing 0.2M HCl and incubated on ice for 30 min, before a second centrifugation at 10000 rpm for 10 min. The supernatant was either dialysed or directly used for immunoblotting. Antibodies were used in 1:1000 concentrations. All antibodies detecting histones and anti-PSD-95 were form Upstate (Lake Placid, N.Y.). Anti-synaptophysin (SVP38) was from Sigma. Anti-neuronal nuclei (neuN) and anti-growth associated protein (Gap43) were from Chemicon (Temecula, Calif.) and anti-N-cadherin, anti-β-catenin were from Santa Cruz (Santa Cruz, Calif.). Immunostaining was performed as described by Fischer et al. (3). Antibodies mentioned above were used in a 1:500 dilution. Anti-MAP-2 antibody (Sigma) was used in a 1:200 dilution.
LSMeta10 software (Zeiss; Jena, Germany) was used to calculate the mean SVP intensity. Brain sections with the strongest intensity were scanned first. All other images included in the analysis where scanned using the same microscope setting. […] Scale bar: 20 μm. py, pyramidal cell layer (FIG. 1g).
For SB treatment, p25 was induced in 11 month old CK-p25 Tg mice for 6 weeks. Afterwards p25 expression was repressed and one group of CK-p25 Tg mice was subjected to daily sodiumbutyrate (SB) injection (1.2 g/kg) for 4 weeks, whereas the other group received saline injection. […] Representative images showing hippocampal MAP-2 staining are depicted in FIG. 7f. MAP-2 immunoreactivity of CK-p25 Tg mice treated with SB is increased when compared to the vehicle group. Representative images showing NeuN staining of the ACC.
On the technique in general: Immunoblotting shows a protein as a band on a membrane.

The subject of a further assay is C57BL/6J mice. In words: Contextual fear conditioning (associative learning) in wild type mice. The format is in vivo. The settings on record: for freezing behavior during the memory test: test 24 h later. From the text:
Learning tests: All behavioral testing is described in Fischer et al. (3).
Mechanism underlying EE. Other than a few genes involved in synaptic function, relatively little is known about the mechanism underlying EE (12-14). Since histone acetylation, an epigenetic mechanism regulating gene expression via chromatin remodeling, has recently been implicated in synaptic plasticity and learning behavior (15-18), the induction of a transcriptional program by EE that leads to activation of plasticity genes was evaluated. Wild type mice were subjected to EE and hippocampal and cortical brain lysates were obtained 3, 24 h or 2 weeks later (n=3/group) by acid extraction and probed with antibodies detecting histone-tail modification that indicate active chromatin. Increases in hippocampal H3 (K-9, K14) and H4 (K-5) and in cortical H3 (K-9) and H4 (K-5) acetylation were observed. […] No changes in H4 acetylation were observed when the Ac-H4 (K,8,12,16) antibody was used, which is likely due to the fact that H4-K16 is a marker of condensed chromatin. EE induced hippocampal and cortical histone 3 (H3) and histone 4 (H4) acetylation and […] as soon as 3 hours after treatment (FIGS. 3a, b). […] To investigate whether inhibition of HDACs mimics the effects of EE, SB was administered daily [ip] into wild type mice for 4 weeks (FIG. 3c). […] Two days after the last injection mice were trained in the fear conditioning paradigm. […] Locomotor activity or basal anxiety was not altered in SB-injected mice (FIG. 8c).
The effect of sodiumbutyrate injection on learning, basal anxiety, explorative behavior and brain plasticity. C57BL/6J mice were subjected to fear conditioning and injected intraperitoneally [ip] with 1.2 g/kg sodiumbutyrate (SB, n=8) or saline (vehicle; n=8) immediately afterwards. […] C57BL/6J mice were implanted with microcannulae into the lateral brain ventricles (icv) and injected with either 100 ng SB, 50 ng TSA or vehicle immediately after fear conditioning (n=8/group). […] C57BL/6J were daily injected [ip] with SB or saline (n=8/group) for 4 weeks before all mice were subjected to the elevated plus maze and open field test. […] Immunoblots were quantified relative to the optical density of the vehicle-group (set to 1). […] The analysis was performed as described under FIG. 1g.
The effects of SAHA and MS-275, relative to sodium butyrate (SB), on the hippocampus dependent associative learning in wildtype mice.
Mice were injected 10 days with either 5 mg/kg of MS275 or 25 mg/kg of UW_WT-I—06 or UW_WT-I—05 before training and memory tests as described above. […] Andorfer, C. et al. Cell-cycle reentry and cell death in transgenic mice expressing nonmutant human tau isoforms. J neurosci 25, 5446-5454 (2005). • 2. Santacruz, K. et al. Tau suppression in a neurodegenerative mouse model improves memory function. Science 309, 476-481 (2005). • 3. Fischer, A., Sananbenesi, F., Pang, P. T., Lu, B. & Tsai, L. H. Opposing roles of transient and prolonged expression of p25 in synaptic plasticity and hippocampus-dependent memory. Neuron 48, 825-838 (2005). • 4. Cruz, J. C. & Tsai, L. H. Jekyll and Hyde kinase: roles for Cdk5 in brain development and disease. Curr Opin Neurobiol. 14, 390-394 (2004). • 5. Cruz, J. C., Tseng, H. C., Goldman, J. A., Shih, H. & Tsai, L. H. Aberrant Cdk5 activation by p25 triggers pathological events leading to neurodegeneration and neurofibrillary tangles. Neuron 40, 471-83 (2003). • 6. Nithianantharajah, J. & Hannan, A. J. Enriched environments, experience-dependent plasticity and disorders of the nervous system. Nat Rev Neurosci 7, 697-709 (2006). • 7. Kim, J. J. & Fanselow, M. S. Modality-specific retrograde amnesia of fear. Science 256, 675-7 (1992). • 8. Gilmore, E. C. & Herrup, K. Neocortical cell migration: GABAergic neurons and cells in layers I and VI move in a cyclin-dependent kinase 5-independent manner. J Neurosci 21, 9690-700 (2001). • 9. […]

With `CCCC(=O)[O-].[Na+]` [SB, sodiumbutyrate], the “levels of synaptic marker proteins (markers for synaptic plasticity and integrity)” value in assay [1] (CK-p25 Tg mice, daily 1.2 g/kg for 4 weeks, hippocampus and cortex, vs vehicle) was “increased levels of synaptic marker proteins; also recorded: several markers for synaptic plasticity and integrity were increased”. Moreover, the “hippocampal MAP-2 immunoreactivity” value in assay [1] (CK-p25 Tg mice, daily 1.2 g/kg for 4 weeks, vs vehicle) is recorded as “increased”. The “levels of synaptic marker proteins” value in assay [1] (CK-p25 Tg mice, long-term memory experiment, vs vehicle group) is reported as “elevated levels of synaptic marker proteins”. For the same molecule, the “MAP-IR in the ACC” value in assay [1] (CK-p25 Tg mice, vs vehicle treated) was “MAP-IR was increased”. Further, in assay [1] (CK-p25 mice, vs vehicle-injected, P<0.0001), the “hippocampal SVP-IR” value is listed as “increased hippocampal SVP-IR”. Also, the “freezing during the memory test” value in the assay with C57BL/6J mice (daily ip 1.2 g/kg for 4 weeks, trained two days after last injection, tested 24 h later, P<0.0001) is given as “more freezing during the memory test”. In addition, the “freezing behavior during the memory test” value is “more freezing behavior than vehicle injected mice” with C57BL/6J mice (icv 100 ng SB or 50 ng TSA immediately after fear conditioning, P<0.0001) and “significantly more freezing behavior” in the assay on C57BL/6J mice (single ip 1.2 g/kg immediately after fear conditioning, P<0.0001). In addition, the associative learning result in the assay with C57BL/6J mice (wild type mice, intraperitoneal [ip] and intracerebroventricular [icv] injections) is recorded as “significantly facilitated associative learning”. Further, the “associative learning, contextual fear conditioning paradigm” value in the assay on C57BL/6J mice (wildtype mice, chronic treatment for 10-21 days) was “facilitates contextual fear conditioning learning”.
